Data as given in PubChem BioAssay (NCI).
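Five compound concentrations were applied to cells in 96-well plates for 48 hours; endpoints were derived by simple linear interpolation of the resulting dose-response curve. GI50 is the concentration that inhibits growth by half. TGI: total growth inhibition.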 Where a SMILES comes first, the peptide text is derived from it. The star is where a group is joined. Boc = CC(C)(C)OC(=O)*; OBn = c1ccc(CO*)cc1

What was measured:
Test in all cases: NCI tumour cell line growth inhibition, 48 h
[1] = tested on: 786-0 renal
[2] = tested on: A498 renal
[3] = tested on: CAKI-1 renal
[4] = tested on: HOP-62 NSCLC
[5] = tested on: K-562 leukemia
[6] = tested on: MALME-3M melanoma
[7] = tested on: MCF7 breast
[8] = tested on: MDA-MB-435
[9] = tested on: NCI-H23 lung
[10] = tested on: NCI-H460 lung
[11] = tested on: NCI-H522 lung
[12] = tested on: OVCAR-3 ovarian
[13] = tested on: PC-3 prostate
[14] = tested on: SK-MEL-2 melanoma
[15] = tested on: SK-MEL-5 melanoma
[16] = tested on: SW-620 colon
[17] = tested on: UO-31 renal
[18] = tested on: RXF 393 renal

Row | SMILES | TGI [1] [µM] | TGI [2] [µM] | TGI [3] [µM] | TGI [4] [µM] | TGI [5] [µM] | TGI [6] [µM] | TGI [7] [µM] | TGI [8] [µM] | TGI [9] [µM] | TGI [10] [µM] | TGI [11] [µM] | TGI [12] [µM] | TGI [13] [µM] | TGI [14] [µM] | TGI [15] [µM] | TGI [16] [µM] | TGI [17] [µM] | TGI [18] [µM] | GI50 [5] [µM] | GI50 [11] [µM]
1 | Cc1ccc2c(c1)C(=O)/C(=N/Nc1ccc(Cl)cc1)CCO2 | > 100 | > 100 | > 100 | > 100 | > 100 | > 100 | > 100 | > 100 | > 100 | > 100 | > 100 | > 100 | > 100 | 54.6 | > 100 | > 100 | > 100 |  |  | 
2 | COC(=O)Nc1nc2ccc(S(=O)(=O)NC(CC(C)C)C(=O)OC)cc2[nH]1 (configuration not stated) | > 100 | 28 | > 100 | > 100 | > 100 | 41.2 | > 100 |  | > 100 | > 100 | 0.888 | 2.7 | > 100 | > 100 | 4.21 | > 100 | > 100 | 15.9 |  | 
3 | CCC(C)C(C(=O)N/N=C1/SCC(=O)N1c1ccccc1)C(=O)N/N=C1/SCC(=O)N1c1ccccc1 (configuration not stated) | > 100 |  | > 100 | > 100 | > 100 | 44.7 | > 100 | 35.9 | > 100 | > 100 | > 100 | > 100 | > 100 | 83.1 | 41.7 | > 100 | > 100 | 42.9 |  | 
4 | C/C1=C/C(C)CC(C)OC(=O)C(C)NC(=O)C(Cc2ccc(O)c(I)c2)N(C)C(=O)CNC(=O)C(C)C1 (configuration not stated) |  | < 0.0134 | < 0.01 | < 0.01 |  | 6.22 | > 100 | 16.6 | > 100 | > 59.7 |  | < 0.01 |  | 10.2 | 13.2 | > 100 | 0.035 | < 0.01 |  | 
5 | CC(C)C(NC(=O)C(Cc1ccccc1)NC(=O)OC(C)(C)C)C(=O)NCC(=O)OCc1ccccc1 (stereo not drawn) (Boc-Phe-Val-Gly-OBn; configuration not given here) | 32.1 | > 100 | 33.7 | 35.6 | 23.9 | 37.5 |  | 21.9 | 36.1 | 37.9 | 20.1 | 27.9 | 29.5 | 32 |  | 29.1 | 51.6 |  |  | 
6 | O=C(Nc1ccc(Cl)cc1)C(=O)C(C(=O)c1ccccc1-c1ccccc1)C1OC(=O)c2ccccc21 (configuration not stated) |  | 38.7 | 55.7 | > 100 | > 100 |  |  |  | 53.4 | 40.1 | 28.3 |  |  | 55.5 | 32 | 46.2 | 36.6 | 24.4 |  | 
7 | CCOC(=O)NNC(=O)C1CSC(c2ccccc2)N1C(C)=O (configuration not stated) | > 100 | > 100 | > 100 | > 100 | > 100 | > 100 | > 100 | > 100 | > 100 | > 100 | > 100 | > 100 | > 100 | > 100 | > 100 | > 100 | > 100 |  |  | 
8 | COC(=O)C(C)NP(=O)(N1CC1)N1CC1 (configuration not stated) |  | > 100 | > 100 |  | > 100 | > 100 |  |  | > 100 |  | > 100 |  |  | > 100 | > 100 | > 100 | > 100 | > 100 |  | 
9 | Cc1ccc2nc(CN3CCCC(O)C3)cc(=O)n2c1 (configuration not stated) | > 100 |  | > 100 | > 100 | > 100 | > 100 | > 100 | > 100 | > 100 | > 100 | > 100 | > 100 | > 100 | > 100 |  | > 100 | > 100 |  |  | 
10 | Nc1nc(N)c2cc(Sc3ccc4nc(N)nc(N)c4c3)ccc2n1 |  | > 100 | > 100 | > 100 | > 100 | > 100 |  | > 100 |  | > 100 |  | > 31.6 | > 100 | > 100 |  | > 100 | > 100 | > 100 |  | 
11 | CC12CCC3[C@@H](CC3(C)C)C(O)(CCC1=O)C2 (some centres not stated) | > 100 |  | > 100 | > 100 | > 100 | > 100 | > 100 | > 100 | > 100 |  |  | > 100 | > 100 | > 100 | > 100 | > 100 | > 100 |  |  | 
12 | COC1CC(C)C(OC)C2=CC(=O)C=C(NC(=O)/C(C)=C/C=C\C(C)C(OC(N)=O)/C(C)=C\C(C)C1OC)C2=O (configuration not stated) | 2.87 | 24.2 | 6.6 | 10.5 | 1.19 | 12 |  |  | 13.8 | 8.37 | 0.728 | 1.48 | 23.6 | 21.5 | 15 | 1.05 | 10.8 | 1.68 | 0.047 | 0.0592
13 | Cc1cc(C)nc(NS(=O)(=O)c2ccc(NNc3c4ccccc4nc4c(C(=O)Nc5ccc(S(=O)(=O)Nc6ncccn6)cc5)cccc34)cc2)n1 | > 100 |  | > 100 | > 100 | 73.1 | 60.3 | > 100 | 55.3 | 69.5 | 92 | 48.9 | 42.2 | 71.3 | 43.6 | 47.5 | 55.2 | > 100 | 80.1 |  | 
14 | O=C(O)c1ccc(P(=O)(O)c2ccc(C(=O)O)cc2Br)c(Br)c1 | > 100 |  | > 100 | > 100 | > 100 |  | > 100 | > 100 | > 100 |  | > 100 | > 100 | > 100 | > 100 | > 100 | > 100 | > 100 | > 100 |  | 
15 | O=C1c2ccccc2C(O)(C(=O)O)C1(O)CC=C(Cl)Cl (configuration not stated) |  | > 125 | > 125 | > 125 | > 125 | > 125 | > 125 |  | > 125 | > 125 | > 125 | > 125 |  | > 125 | > 125 | > 125 | > 125 | > 125 |  | 
